Results: patent publication US5756348A (Synaptic Pharmaceutical Corporation, priority 1994, dated 1998)

Columns and labels:
[1] = target: T1, glycine transporter encoded by rB20a (Rattus norvegicus, UniProt P28572); assay: Competition for [3H]glycine uptake by COS-7 cells transfected with rB20a; assay type: cell-based; settings: for inhibition at 1000 µM / inhibition at 10 µM / inhibition at 100 µM: COS-7, 10 min, read-out: % displacement of specific [3H]glycine uptake; for % displacement of specific [3H]glycine uptake: 50 nM [3H]glycine, 10 minutes, 37° C.
T1 construct: expressed in transfected cells
T1 sequence (P28572 1-638): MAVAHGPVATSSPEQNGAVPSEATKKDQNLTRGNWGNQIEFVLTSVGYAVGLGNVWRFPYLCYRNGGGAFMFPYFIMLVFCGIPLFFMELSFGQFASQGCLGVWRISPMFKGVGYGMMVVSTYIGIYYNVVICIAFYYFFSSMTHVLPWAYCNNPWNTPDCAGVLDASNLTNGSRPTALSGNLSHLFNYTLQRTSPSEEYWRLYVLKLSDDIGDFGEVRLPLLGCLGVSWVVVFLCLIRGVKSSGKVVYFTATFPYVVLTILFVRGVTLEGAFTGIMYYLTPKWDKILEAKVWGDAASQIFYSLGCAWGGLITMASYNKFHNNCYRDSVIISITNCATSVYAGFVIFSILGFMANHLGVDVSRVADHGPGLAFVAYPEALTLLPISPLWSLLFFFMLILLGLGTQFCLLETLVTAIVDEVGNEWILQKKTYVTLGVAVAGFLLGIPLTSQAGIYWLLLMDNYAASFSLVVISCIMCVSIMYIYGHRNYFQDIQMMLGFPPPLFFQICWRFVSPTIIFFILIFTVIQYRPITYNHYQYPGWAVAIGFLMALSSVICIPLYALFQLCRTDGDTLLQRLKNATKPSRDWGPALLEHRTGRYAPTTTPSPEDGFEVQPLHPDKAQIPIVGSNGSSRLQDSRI
Description: (§1) These two clones were constructed into a full-length clone (designated rB20a) by ligation at their internal Nco I sites and then cloned into the eukaryotic expression vector pSVL (Pharmacia LXB Biotechnology, Piscataway, N.J.). Transient transfection of COS cells was carried out using DEAE-dextran with DMSO according to the method of Lopata et al. (1984) with minor modifications. COS cells were grown in six-well plates (37° C.,5%CO2) in high glucose Dulbecco's modified Eagle medium supplemented with 10% bovine calf serum, 100 U/ml penicillin G, and 100 μg/ml streptomycin sulfate. Cells were routinely used two days after transfection for transport studies.
(§2) Plates were incubated at 37° C. for 10 or 20 minutes, then washed rapidly 3× with HBS. Cells were solubilized with 0.05% sodium deoxycholate/0.1N NaOH (1 ml/well), 0.5 ml aliquots were removed, neutralized with 1N HCl, and radioactivity was determined by scintillation counting. Protein was quantified in an aliquot of the solubilized cells with the Bradford Reagent (Biorad, Richmond, Calif.), according to the manufacturer's directions.
Nonspecific uptake was determined with 1 mM

[2] = target: T1, glycine transporter encoded by rB20a; assay: Transport of radiolabeled substrates by COS cells transiently transfected with rB20a; assay type: cell-based; settings: data not shown
Description: as §1, §2

[3] = system: high-affinity transporter present in glial cell cultures; settings: read-out: Km for glycine; cited from earlier work
[4] = system: high-affinity transporter in rat brain synaptosomes; settings: read-out: Km for glycine; cited from earlier work

With `NC[C@H](O)c1ccc(O)c(O)c1` [(-)-norepinephrine] the inhibition at 1000 µM [1] was 0%.

`CCOC(=O)CN` [glycine ethyl ester] gave an inhibition at 10 µM [1] of 0%, an inhibition at 100 µM [1] of 0% and an inhibition at 1000 µM [1] of 32%. The “% displacement of specific [3H]glycine uptake” value (“% displacement of specific” below) ([1]; inhibitor 10 μM) was “no inhibition” and the “% displacement of specific” value ([1]; inhibitor 100 μM) was “no inhibition”.

`COC(=O)CN` [glycine methyl ester] gave an inhibition at 10 µM [1] of 0%, an inhibition at 100 µM [1] of 0% and an inhibition at 1000 µM [1] of 42%. The “% displacement of specific” value ([1]; inhibitor 10 μM) was “no inhibition” and the “% displacement of specific” value ([1]; inhibitor 100 μM) was “no inhibition”.

For `NCCc1ccc(O)c(O)c1` [[^3 H]dopamine], the “effect of rB20a expression on uptake of the radiolabeled substrate” value (“effect of rB20a expression” below) [2] was “did not significantly alter”.

For `NCCc1cnc[nH]1` [[^3 H]histamine], the “effect of rB20a expression” value [2] was “did not significantly alter”.

With `[3H][C@](O)(CN)c1ccc(O)c(O)c1` [[^3 H]norepinephrine] the “effect of rB20a expression” value [2] was “did not significantly alter”.

With `CNC(C)(C)C(=O)O` [α-(methylamino)isobutyric acid] the inhibition at 1000 µM [1] was 3% and the “% displacement of specific” value ([1]; inhibitor 1 mM) was “Neither α-(methylamino) isobutyric acid (1 mM), a substrate for system A, nor L-serine (1 mM), a substrate for system ASC, significantly competed”.

`NCCCC(=O)O` [GABA, gamma-aminobutyric acid] gave an inhibition at 1000 µM [1] of 0%.

For `NCCCC(=O)O` [[^3 H]GABA], the “effect of rB20a expression” value [2] was “did not significantly alter”.

In the case of `C[C@H](N)C(=O)O` [L-alanine], the inhibition at 1000 µM [1] is reported as 2%.

`N[C@@H](CCC(=O)O)C(=O)O` [L-glutamate] gave an inhibition at 1000 µM [1] of 0%.

With ^3 H]glutamate the “effect of rB20a expression” value [2] was “did not significantly alter”.

Work on `NCCc1ccc(O)c(O)c1` [dopamine] yielded an inhibition at 1000 µM [1] of 0%.

Work on `CNCC(=O)O` [sarcosine, N-methylglycine] yielded an inhibition at 10 µM [1] of 23%, an inhibition at 100 µM [1] of 64% and an inhibition at 1000 µM [1] of 100%. For the same molecule, the IC50 ([1]; estimated from inhibition at three concentrations) was roughly 50 µM.

In the case of `N[C@@H](Cc1ccc(O)cc1)C(=O)O` [[^3 H]tyrosine], the “effect of rB20a expression” value [2] is reported as “did not significantly alter”.

Molecule `NCCc1c[nH]cn1` [histamine] has an inhibition at 1000 µM [1] of 0%.

For `NCCc1c[nH]c2ccc(O)cc12` [[^3 H]5-HT], the “effect of rB20a expression” value [2] was “did not significantly alter”.

In the case of `NCC(=O)O` [glycine], the Km [3] is listed as 95 µM, the inhibition at 1000 µM [1] is listed as 100% and the Km [4] is listed as 50 µM.

For `N[C@@H](CO)C(=O)O` [L-serine], the inhibition at 1000 µM [1] was 4% and the “% displacement of specific” value ([1]; inhibitor 1 mM) was “Neither α-(methylamino) isobutyric acid (1 mM), a substrate for system A, nor L-serine (1 mM), a substrate for system ASC, significantly competed”.
